Experimental data from article PMC6598645 (Chemical Science, 2019).
*1 amine or outer side, *2 acyl side, *3 side chain or, on linkers, in order; H or OH if unused. Where a SMILES comes first, the peptide text is derived from it. Bridges are numbered along the chain shown (N, C = ends). [ ]: non-standard residue; d: D form. X2 = O=C([C@H](CCNP(=O)(CC[*:3])OCc1ccccc1)N[*:1])[*:2]; Nle = CCCC[C@H](N)C(=O)O

Tested on: HeLa cells
Assay: Cellular uptake of CF-labelled peptides, confocal imaging
Format: cell-based
Conditions: 10 μM mixture of 10% fluorescein (CF) labelled and 90% non-labelled peptides, three hours, 37°C, confocal microscopy

Compound	cellular uptake
AcLSQEQLEHRERSL TLR IQRNMLFNH2 (sidechain bridge or staple) [compound 7, RCM-BCL9-Nle peptide]	taken up readily
CCCC[C@H](NC(=O)[C@H](CCCNC(=N)N)NC(=O)[C@H](CCC(N)=O)NC(=O)[C@@H](NC(=O)[C@H]1CSCCP(=O)(OCc2ccccc2)NCC[C@H](NC(=O)[C@H](CC(C)C)NC(=O)[C@H](CO)NC(=O)[C@H](CCCNC(=N)N)NC(=O)[C@H](CCC(=O)O)NC(=O)[C@H](CCCNC(=N)N)NC(=O)[C@H](Cc2c[nH]cn2)NC(=O)[C@H](CCC(=O)O)NC(=O)[C@H](CC(C)C)NC(=O)[C@H](CCC(N)=O)NC(=O)[C@H](CCC(=O)O)NC(=O)[C@H](CCC(N)=O)NC(=O)[C@H](CO)NC(=O)[C@H](CC(C)C)NC(C)=O)C(=O)N[C@@H]([C@@H](C)O)C(=O)N[C@@H](CC(C)C)C(=O)N[C@@H](CCCNC(=N)N)C(=O)N1)[C@@H](C)CC)C(=O)N[C@@H](CC(C)C)C(=O)N[C@@H](Cc1ccccc1)C(N)=O (stereo partly drawn) [compound 13, cyclic-benzylphosphonamidate-BCL9-Nle-Aha-DCys peptide] (Ac-LSQEQLEHRERSL[X2]TLR[dC]IQR[Nle]LF-NH2; thioether 14-18; N-terminus and C-terminus assumed)	increased cellular uptake
